Laboratory results: ChEMBL document CHEMBL3045033, “Synthesis of new potential anticancer agents based on 4-thiazolidinone and oleanane scaffolds” (Med Chem Res, 2012)
Where “and” joins values, the source holds several entries; their conditions need not be identical. Identical values can stand only once.

Key:
Format in all cases: functional
LOX IMVI = assay: Cytotoxicity against Homo sapiens (human) LOXIMVI cells after 48 hr by SRB assay
CAKI-1 = assay: Cytotoxicity against Homo sapiens (human) Caki1 cells after 48 hr by SRB assay; settings: CAKI-1, 48 h
RXF 393 [1] = assay: Cytotoxicity against Homo sapiens (human) RXF393 cells after 48 hr by SRB assay
SK-MEL-2 = assay: Cytotoxicity against Homo sapiens (human) SK-MEL-2 cells after 48 hr by SRB assay; settings: SK-MEL-2, 48 h
MDA-MB-231 = assay: Cytotoxicity against Homo sapiens (human) MDA-MB-231 cells after 48 hr by SRB assay; settings: MDA-MB-231, 48 h
A549 = assay: Cytotoxicity against Homo sapiens (human) A549 cells after 48 hr by SRB assay; settings: A549, 48 h
M14 = assay: Cytotoxicity against Homo sapiens (human) M14 cells at 10^-4 to 10^-8 M after 48 hr by SRB assay; settings: M14, 48 h, read-out: pTGI (converted)
Malme-3M [2] = assay: Cytotoxicity against Homo sapiens (human) MALME-3M cells after 48 hr by SRB assay; settings: for CC50: read-out: pLC50 (the source's name) (converted)
SF-295 = assay: Cytotoxicity against Homo sapiens (human) SF295 cells after 48 hr by SRB assay; settings: SF-295, 48 h
OVCAR-4 [3] = assay: Cytotoxicity against Homo sapiens (human) OVCAR4 cells at 10^-4 to 10^-8 M after 48 hr by SRB assay; settings: OVCAR-4, 48 h, read-out: pTGI (converted)
PC-3 [4] = assay: Cytotoxicity against Homo sapiens (human) PC3 cells assessed as cellular growth at 10^-5 M after 48 hr by SRB assay relative to untreated control
MDA-MB-435 [5] = assay: Cytotoxicity against Homo sapiens (human) MDA-MB-435 cells at 10^-4 to 10^-8 M after 48 hr by SRB assay; settings: MDA-MB-435, 48 h, read-out: pTGI (converted)
NCI-H522 = assay: Cytotoxicity against Homo sapiens (human) NCI-H522 cells at 10^-4 to 10^-8 M after 48 hr by SRB assay; settings: NCI-H522, 48 h, read-out: pTGI (converted)
SF-268 = assay: Cytotoxicity against Homo sapiens (human) SF268 cells after 48 hr by SRB assay; settings: SF-268, 48 h
MDA-MB-435 [6] = assay: Cytotoxicity against Homo sapiens (human) MDA-MB-435 cells after 48 hr by SRB assay; settings: MDA-MB-435, 48 h; for CC50: read-out: pLC50 (the source's name) (converted)
PC-3 [7] = assay: Cytotoxicity against Homo sapiens (human) PC3 cells after 48 hr by SRB assay; settings: PC-3, 48 h
RXF 393 [8] = assay: Cytotoxicity against Homo sapiens (human) RXF393 cells at 10^-4 to 10^-8 M after 48 hr by SRB assay; settings: RXF 393, 48 h, read-out: pTGI (converted)
SNB-19 = assay: Cytotoxicity against Homo sapiens (human) SNB19 cells at 10^-4 to 10^-8 M after 48 hr by SRB assay; settings: SNB-19, 48 h, read-out: pTGI (converted)
IGROV-1 [9] = assay: Cytotoxicity against Homo sapiens (human) IGROV1 cells at 10^-4 to 10^-8 M after 48 hr by SRB assay; settings: IGROV-1, 48 h, read-out: pTGI (converted)
T47D = assay: Cytotoxicity against Homo sapiens (human) T47D cells after 48 hr by SRB assay
HCT-15 = assay: Cytotoxicity against Homo sapiens (human) HCT15 cells after 48 hr by SRB assay; settings: HCT-15, 48 h
BT-549 = assay: Cytotoxicity against Homo sapiens (human) BT549 cells after 48 hr by SRB assay; settings: BT-549, 48 h
OVCAR-4 [10] = assay: Cytotoxicity against Homo sapiens (human) OVCAR4 cells after 48 hr by SRB assay; settings: OVCAR-4, 48 h
Hs-578T = assay: Cytotoxicity against Homo sapiens (human) Hs578T cells after 48 hr by SRB assay
K562 [11] = assay: Cytotoxicity against Homo sapiens (human) K562 cells after 48 hr by SRB assay; settings: K562, 48 h
MCF7 = assay: Cytotoxicity against Homo sapiens (human) MCF7 cells after 48 hr by SRB assay; settings: MCF7, 48 h
786-0 = assay: Cytotoxicity against Homo sapiens (human) 786-0 cells after 48 hr by SRB assay; settings: 786-0, 48 h
OVCAR-8 = assay: Cytotoxicity against Homo sapiens (human) OVCAR8 cells after 48 hr by SRB assay; settings: OVCAR-8, 48 h
HT-29 = assay: Cytotoxicity against Homo sapiens (human) HT-29 cells at 10^-4 to 10^-8 M after 48 hr by SRB assay; settings: HT-29, 48 h, read-out: pTGI (converted)
NCI-H23 = assay: Cytotoxicity against Homo sapiens (human) NCI-H23 cells after 48 hr by SRB assay; settings: NCI-H23, 48 h
TK-10 = assay: Cytotoxicity against Homo sapiens (human) TK10 cells after 48 hr by SRB assay; settings: TK-10, 48 h
IGROV-1 [12] = assay: Cytotoxicity against Homo sapiens (human) IGROV1 cells after 48 hr by SRB assay
SK-MEL-5 = assay: Cytotoxicity against Homo sapiens (human) SK-MEL-5 cells after 48 hr by SRB assay
RPMI-8226 [13] = assay: Cytotoxicity against Homo sapiens (human) RPMI8226 cells after 48 hr by SRB assay; settings: RPMI-8226, 48 h
NCI-H460 = assay: Cytotoxicity against Homo sapiens (human) NCI-H460 cells after 48 hr by SRB assay; settings: NCI-H460, 48 h
HL-60(TB) = assay: Cytotoxicity against Homo sapiens (human) HL-60(TB) cells after 48 hr by SRB assay; settings: HL-60, 48 h
HCT-116 = assay: Cytotoxicity against Homo sapiens (human) HCT116 cells after 48 hr by SRB assay; settings: HCT-116, 48 h
RPMI-8226 [14] = assay: Cytotoxicity against Homo sapiens (human) RPMI8226 cells assessed as cellular growth at 10^-5 M after 48 hr by SRB assay relative to untreated control
MOLT-4 = assay: Cytotoxicity against Homo sapiens (human) MOLT4 cells assessed as cellular growth at 10^-5 M after 48 hr by SRB assay relative to untreated control
Malme-3M [15] = assay: Cytotoxicity against Homo sapiens (human) MALME-3M cells at 10^-4 to 10^-8 M after 48 hr by SRB assay; settings: read-out: pTGI (converted)
K562 [16] = assay: Cytotoxicity against Homo sapiens (human) K562 cells assessed as cellular growth at 10^-5 M after 48 hr by SRB assay relative to untreated control

In the case of `COC(=O)[C@]12CCC(C)(C)C[C@H]1C1=CC[C@@H]3[C@@]4(C)CC/C(=N\O)C(C)(C)[C@@H]4CC[C@@]3(C)[C@]1(C)CC2`, the GI50 (LOX IMVI; Homo sapiens, LOX IMVI, 48 h) is reported as 19.5 µM, the GI50 (CAKI-1) is reported as 19.5 µM and the GI50 (RXF 393 [1]; Homo sapiens, RXF 393, 48 h) is reported as 18.2 µM. For the same compound, the GI50 (SK-MEL-2) was 64.6 µM, the GI50 (MDA-MB-231) was 20.4 µM and the GI50 (A549) was 28.8 µM. For the same compound, the TGI (M14) was 57.5 µM, the CC50 (Malme-3M [2]) was over 100 µM and the GI50 (SF-295) was 17.8 µM. It also gave a TGI (OVCAR-4 [3]) of over 100 µM, an Activity (PC-3 [4]) of 38.63% and a TGI (MDA-MB-435 [5]) of over 100 µM. For the same compound, the TGI (NCI-H522) was 66.1 µM, the GI50 (SF-268) was 24 µM and the GI50 (MDA-MB-435 [6]) was 39.8 µM. The CC50 (MDA-MB-435 [6]) was over 100 µM, the GI50 (PC-3 [7]) was 20.4 µM and the TGI (RXF 393 [8]) was 36.3 µM. It also gave a TGI (SNB-19) of 69.2 µM, a TGI (IGROV-1 [9]) of over 100 µM and a GI50 (T47D) of 25.1 µM. For the same compound, the GI50 (HCT-15) was 24 µM, the GI50 (BT-549) was 64.6 µM and the GI50 (OVCAR-4 [10]) was 30.2 µM. It also gave a GI50 (Hs-578T) of 27.5 µM, a GI50 (K562 [11]) of 37.2 µM and a GI50 (MCF7) of 20.4 µM. The GI50 (786-0) was 17.8 µM, the GI50 (OVCAR-8) was 34.7 µM and the TGI (HT-29) was 79.4 µM. It also gave a GI50 (NCI-H23) of 20 µM, a GI50 (TK-10) of 33.9 µM and a GI50 (IGROV-1 [12]; Homo sapiens, IGROV-1, 48 h) of 33.9 µM. The GI50 (SK-MEL-5; Homo sapiens, SK-MEL-5, 48 h) was 21.4 µM, the GI50 (RPMI-8226 [13]) was 39.8 µM and the GI50 (NCI-H460) was 21.9 µM. For the same compound, the GI50 (HL-60(TB)) was 58.9 µM and the GI50 (HCT-116) was 29.5 µM.

Work on `CC1(C)CC[C@@]23CC[C@]4(C)[C@@](OC2=O)([C@@H]3C1)[C@@H](Br)C[C@@H]1[C@@]2(C)CC/C(=N\O)C(C)(C)[C@@H]2CC[C@]14C` yielded a GI50 (LOX IMVI; Homo sapiens, LOX IMVI, 48 h) of 10 µM, a GI50 (CAKI-1) of 28.2 µM and a GI50 (SK-MEL-2) of over 100 µM. The GI50 (MDA-MB-231) was 17.8 µM, the GI50 (A549) was 17.8 µM and the TGI (M14) was over 100 µM. The Activity (RPMI-8226 [14]) was 38.33%, the GI50 (Malme-3M [2]) was 3.02 µM and the CC50 (Malme-3M [2]) was over 100 µM. It also gave a GI50 (SF-295) of 14.1 µM, a TGI (OVCAR-4 [3]) of over 100 µM and an Activity (PC-3 [4]) of 38.45%. For the same compound, the GI50 (SF-268) was 27.5 µM, the CC50 (MDA-MB-435 [6]) was over 100 µM and the GI50 (PC-3 [7]) was 40.7 µM. It also gave a TGI (SNB-19) of over 100 µM, a GI50 (T47D) of 17.4 µM and an Activity (MOLT-4) of 20.29%. It also gave a GI50 (HCT-15) of 30.9 µM, a GI50 (BT-549) of 9.33 µM and a GI50 (OVCAR-4 [10]) of 11.5 µM. The GI50 (Hs-578T) was 4.68 µM, the GI50 (K562 [11]) was 56.2 µM and the GI50 (MCF7) was 11.7 µM. For the same compound, the GI50 (786-0) was 49 µM, the GI50 (OVCAR-8) was 8.51 µM and the TGI (HT-29) was over 100 µM. The TGI (Malme-3M [15]) was 23.4 µM, the GI50 (NCI-H23) was 38 µM and the GI50 (TK-10) was 18.6 µM. For the same compound, the GI50 (SK-MEL-5; Homo sapiens, SK-MEL-5, 48 h) was 26.3 µM, the GI50 (RPMI-8226 [13]) was over 100 µM and the GI50 (NCI-H460) was 19.1 µM. It also gave a GI50 (HL-60(TB)) of over 100 µM, a GI50 (HCT-116) of 19.1 µM and an Activity (K562 [16]) of 21.17%.

`COC(=O)[C@]12CCC(C)(C)C[C@H]1C1=CC[C@@H]3[C@@]4(C)CC/C(=N\OC(=O)/C=C5/SC(=O)NC5=O)C(C)(C)[C@@H]4CC[C@@]3(C)[C@]1(C)CC2` was tested, and the GI50 (LOX IMVI) was 6.61 µM and 1.48 µM, the GI50 (RXF 393 [1]) was 6.61 µM and 1.91 µM and the TGI (M14) was 5.13 µM. It also gave an Activity (RPMI-8226 [14]) of 16.33%, a TGI (OVCAR-4 [3]) of 6.92 µM and a TGI (MDA-MB-435 [5]) of 9.12 µM. The TGI (NCI-H522) was 5.62 µM, the TGI (RXF 393 [8]) was 3.55 µM and the TGI (SNB-19) was 26.3 µM. For the same compound, the TGI (IGROV-1 [9]) was 4.17 µM, the Activity (MOLT-4) was 2.28% and the TGI (HT-29) was 5.13 µM. For the same compound, the TGI (Malme-3M [15]) was 7.76 µM, the GI50 (IGROV-1 [12]) was 8.91 µM and 1.91 µM and the GI50 (SK-MEL-5) was 43.7 µM and 5.25 µM. The Activity (K562 [16]) was 26.64%.
